From PMC6345779, “Hypoculoside, a sphingoid base-like compound from Acremonium disrupts the membrane integrity of yeast cells” (Scientific Reports, 2019) come the findings set out here.

Structures are written as SMILES.

Test [1] deals with vps35Δ, pep8Δ, vps20Δ, vps27Δ and vps36Δ strains. The test is described as follows: Single-mutant sensitivity growth assay of deletion strains in YPD medium. It counts as cell-based, Saccharomyces cerevisiae. As to the method: Figure 3 Homozygous profiling of hypoculoside in Saccharomyces cerevisiae. (A) logFC (Fitness Coefficient) was plotted against P-value for the 3702 mutants that were analyzed by HOP. The more negative the logFC value of a mutant, more sensitive is the mutant to hypoculoside. Mutants that have logFC < −0.5 and P-value < 0.05 are indicated by red dots and the remaining strains are indicated as blue dots. For the sake of clarity, gene names of only a subset of the top hits are indicated in the plot. (B) Wild type strain BY4743 and 24 deletion strains that were sensitive to hypoculoside in the HOP assay, were grown in the YPD medium in the presence of either DMSO or hypoculoside at different concentrations (0, 0.6, 1.3, 2.7 and 5.5 µM). Normalized growth at the different concentrations of hypoculoside tested after 24 hours of incubation at 30 °C is plotted for each strain.
To test the validity of our HOP data, we first identified 336 ‘hypoculoside-sensitive’ mutants (Supplementary Table S1) that had at least a 1.4-fold inhibitory effect on their growth rate (i.e. logFC ≤ −0.5) with a P-value ≤ 0.05. From the list of 336 mutants, we chose 24 mutants that represent different Gene Ontology categories (see below) and tested their sensitivity to hypoculoside. Eighteen of the total 24 mutants were sensitive to hypoculoside confirming the HOP data (Fig. 3B). We also tested mutants that were predicted to be resistant to hypoculoside (positive logFC ≥ 0.5 and P-value ≤ 0.05). But none of them were resistant to hypoculoside in comparison to wild type strain in the single-mutant sensitivity assays (data not shown).
Figure 5 Structure-activity studies of hypoculoside. (A) Wild type strain (BY4743), vps35Δ, pep8Δ, vps20Δ, vps27Δ and vps36Δ strains were grown in YPD medium in the presence of hypoculoside or hypoculine at the indicated concentrations. Normalized growth at the different concentrations of hypoculoside and hypoculine tested after 24 hours of incubation at 30 °C is plotted for each strain. (B) Wild type strain (BY4743), vps35Δ, pep8Δ, vps20Δ, vps27Δ and vps36Δ strains were grown in YPD medium in the presence of hypoculoside or phytosphingosine or dihydrosphingosine at the indicated concentrations. Normalized growth at the different concentrations of hypoculoside, phytosphingosine and dihydrosphingosine tested after 24 hours of incubation at 30 °C is plotted for each strain.

For test [2], the system named is vacuoles of wild type yeast cells. Kind of test: FM 4-64 fluorescence microscopy of vacuolar structure. It is filed as cell-based, Saccharomyces cerevisiae. The settings on record: 11.6 µM, FM 4-64 pre-labelled wild type cells, N = 100 cells. As to the method:
As several vacuolar transport mutants were sensitive to hypoculoside (Fig. 3), we examined the effect of hypoculoside on the vacuolar structure of yeast cells. We incubated wild type yeast cells with FM 4–64, a dye that stains the vacuolar membranes, for 1 hour. We then washed off the excess FM 4–64 from the medium and transferred the cells into fresh medium with either hypoculoside or hypoculine or DMSO. […] In contrast, about 50% of 11.6 µM hypoculoside-treated cells had defective vacuoles (Fig. 7B). However, only 3% of 11.6 µM hypoculine-treated cells had defective vacuoles. Thus, the effect of hypoculoside and hypoculine on vacuolar structure correlates with their inhibitory activities.
Figure 7 Hypoculoside but not hypoculine disrupts the vacuolar structure of yeast cells. Wild type yeast cells containing vacuoles pre-labelled with the lipophilic dye FM 4-64 were exposed to either DMSO or hypoculoside or hypoculine at the indicated concentrations for 1 hour. Effects of the compounds on vacuolar morphology was analyzed by fluorescence microscopy. […] (B) Quantification of the various categories for cells treated with either DMSO or hypoculoside or hypoculine is plotted (N = 100 cells). […]
Labeling of yeast cells with FM4-64 (Invitrogen) was done as previously reported. […] The images were acquired using an inverted fluorescence microscope ZEISS LSM 5 LIVE (Carl Zeiss, Oberkochen, Germany).

In the case of `CC(N)C(O)CCCCCCCCCCCCCCCCCCC(O)C(C)OC1OC(CO)C(O)C(O)C1O` (stereo not shown) [hypoculoside, Hypoculoside], the “inhibition of growth of the vps35, pep8, vps20, vps27 and vps36 mutants” value in test [1] (5.5 µM, YPD, 24 hours at 30 °C) is reported as “completely inhibited”. Also, the “concentration that inhibited the growth of the vps35, pep8, vps20, vps27 and vps36 mutants” value in test [1] (YPD, 24 hours at 30 °C (Fig. 5A)) is 5.5 µM. For the same compound, the “toxicity to vesicular trafficking mutants in comparison to the wild type strain” value in test [1] (several vesicular trafficking mutants) is listed as “two-fold more toxic”. The “cells with defective vacuoles” value in test [2] is reported as “about 50%”.
